Literature values, collected in patent publication US4127525A, “Novel tridecapeptides, intermediates therefor, and compositions and methods employing said tridecapeptides” (priority 1977, dated 1978).

Columns and labels:
[1] = tested on: rat; details: injected directly into the brain of the rat
[2] = tested on: partially purified brain opiate receptor sites; details: natural peptide

Substance: H-Tyr-Gly-Gly-Phe-Met-OH [methionine enkephalin]
- analgesic activity [1]: only weak analgesic agent of short duration
- binding to partially purified brain opiate receptor sites [2]: binds stereo-specifically
